For three molecules, inhibition, IC50 and Ratio IC50 results are on record in ChEMBL document CHEMBL3792292, “Development of a potent and selective FLT3 kinase inhibitor by systematic expansion of a non-selective fragment-screening hit” (Bioorg Med Chem Lett, 2016).

Assay [1] addresses Receptor-type tyrosine-protein kinase FLT3 (Homo sapiens) (UniProt P36888). Nature of the assay: Inhibition of FLT3 autophosphorylation at Tyr-596 in human MV4-11 cells after 1.5 hrs by Western blot analysis. It counts as cell-based. Background: Immunoblotting shows a protein as a band on a membrane.
Assay [2] in a line: Growth inhibition of human WI38 cells after 48 hrs by CCK8 assay. It counts as cell-based. The following applies: WI-38, 48 h. (In general: Tetrazolium dyes change colour on reduction, which living cells bring about.)
The target of assay [3] is T1, Tyrosine-protein kinase receptor TYRO3 (Homo sapiens) (UniProt Q06418).
T1 sequence (whole entry): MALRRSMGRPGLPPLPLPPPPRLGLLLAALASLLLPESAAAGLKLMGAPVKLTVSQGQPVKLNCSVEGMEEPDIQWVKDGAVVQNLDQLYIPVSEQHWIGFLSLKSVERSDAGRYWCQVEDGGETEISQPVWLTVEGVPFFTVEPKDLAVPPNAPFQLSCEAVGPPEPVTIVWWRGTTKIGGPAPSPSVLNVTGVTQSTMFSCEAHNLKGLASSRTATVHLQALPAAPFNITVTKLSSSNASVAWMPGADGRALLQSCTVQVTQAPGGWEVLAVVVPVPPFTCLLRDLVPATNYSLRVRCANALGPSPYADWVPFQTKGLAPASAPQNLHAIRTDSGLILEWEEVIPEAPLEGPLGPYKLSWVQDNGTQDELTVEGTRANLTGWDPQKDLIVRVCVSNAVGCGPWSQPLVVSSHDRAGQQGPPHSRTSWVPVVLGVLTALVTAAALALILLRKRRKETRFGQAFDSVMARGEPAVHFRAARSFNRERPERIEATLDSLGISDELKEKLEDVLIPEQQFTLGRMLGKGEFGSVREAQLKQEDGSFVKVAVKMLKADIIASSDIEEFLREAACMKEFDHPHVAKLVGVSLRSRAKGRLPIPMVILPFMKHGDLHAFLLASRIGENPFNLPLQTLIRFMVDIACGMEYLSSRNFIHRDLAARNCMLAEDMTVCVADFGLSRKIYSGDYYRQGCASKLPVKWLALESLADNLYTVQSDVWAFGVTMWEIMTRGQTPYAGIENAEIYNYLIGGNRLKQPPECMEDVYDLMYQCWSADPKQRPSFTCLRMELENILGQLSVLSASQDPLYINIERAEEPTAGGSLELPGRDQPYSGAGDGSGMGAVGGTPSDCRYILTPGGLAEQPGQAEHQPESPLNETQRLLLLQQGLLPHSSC
Nature of the assay: Inhibition of human N-terminal GST-tagged TYRO3 cytoplasmic domain (453 to 890 residues) expressed in baculovirus expression system using fluorescence labelled CSKtide as substrate at 50 times IC50 by electrophoretic mobility shift assay relative to control.

Assay [4] has as its target T2, Inhibitor of nuclear factor kappa-B kinase subunit beta (Homo sapiens) (UniProt O14920).
T2 sequence (whole entry): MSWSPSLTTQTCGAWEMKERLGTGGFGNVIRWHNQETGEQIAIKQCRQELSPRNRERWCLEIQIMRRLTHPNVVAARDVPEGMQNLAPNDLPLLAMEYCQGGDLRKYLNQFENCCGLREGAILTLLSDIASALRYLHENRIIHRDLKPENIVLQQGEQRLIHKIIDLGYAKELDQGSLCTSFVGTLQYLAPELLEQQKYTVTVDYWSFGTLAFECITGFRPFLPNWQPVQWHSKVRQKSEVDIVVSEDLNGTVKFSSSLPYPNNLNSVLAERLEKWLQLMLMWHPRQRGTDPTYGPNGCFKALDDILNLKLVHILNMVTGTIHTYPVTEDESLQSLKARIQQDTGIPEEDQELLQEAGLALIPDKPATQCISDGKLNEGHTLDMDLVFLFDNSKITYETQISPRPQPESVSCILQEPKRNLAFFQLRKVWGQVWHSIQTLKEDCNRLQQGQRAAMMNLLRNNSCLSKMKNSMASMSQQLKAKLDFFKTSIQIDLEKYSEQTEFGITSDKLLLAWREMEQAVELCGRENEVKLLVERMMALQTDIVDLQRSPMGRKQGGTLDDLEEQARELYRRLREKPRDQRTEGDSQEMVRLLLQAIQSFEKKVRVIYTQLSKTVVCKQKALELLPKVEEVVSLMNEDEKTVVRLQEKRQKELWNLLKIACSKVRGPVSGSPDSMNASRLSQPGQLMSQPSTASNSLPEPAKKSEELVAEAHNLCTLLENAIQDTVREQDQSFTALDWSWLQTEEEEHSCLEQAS
Nature of the assay: Inhibition of human N-terminal His-tagged IKKbeta (1 to 662 residues) expressed in baculovirus expression system using fluorescence labelled modified IKBalpha derived peptide substrate at 50 times IC50 by electrophoretic mobility shift assay relative to control.

For another assay, the species on record is Homo sapiens. Nature of the assay: Selectivity ratio of IC50 for human N-terminal GST-tagged TRKA cytoplasmic domain (436 to 790 residues) expressed in baculovirus expression system to IC50 for human N-terminal GST-tagged FLT3 cytoplasmic domain (564 to 993 residues) expressed in baculovirus expression system.
The next assay deals with MV4-11. As to the kind of experiment: Growth inhibition of human MV4-11 cells harboring FLT3-ITD after 48 hrs by CCK8 assay. The class given is functional, cell-based. The following applies: MV4-11, 48 h.
In assay [5] the target is Ribosomal protein S6 kinase beta-1 (Homo sapiens) (UniProt P23443). Nature of the assay: Inhibition of human N-terminal GST-tagged p70S6K catalytic domain (1 to 421 residues) expressed in baculovirus expression system coexpressing His-tagged PDK1 (1 to 556 residues) using fluorescence labelled S6K2 peptide substrate at 50 times IC50 by electrophoretic mobility shift assay relative to control. A general note: In EMSA bound probe runs differently from free probe, usually more slowly.
Ribosomal protein S6 kinase beta-1 (Homo sapiens), sequence (P23443 whole entry, looked up, the tested form may be a part): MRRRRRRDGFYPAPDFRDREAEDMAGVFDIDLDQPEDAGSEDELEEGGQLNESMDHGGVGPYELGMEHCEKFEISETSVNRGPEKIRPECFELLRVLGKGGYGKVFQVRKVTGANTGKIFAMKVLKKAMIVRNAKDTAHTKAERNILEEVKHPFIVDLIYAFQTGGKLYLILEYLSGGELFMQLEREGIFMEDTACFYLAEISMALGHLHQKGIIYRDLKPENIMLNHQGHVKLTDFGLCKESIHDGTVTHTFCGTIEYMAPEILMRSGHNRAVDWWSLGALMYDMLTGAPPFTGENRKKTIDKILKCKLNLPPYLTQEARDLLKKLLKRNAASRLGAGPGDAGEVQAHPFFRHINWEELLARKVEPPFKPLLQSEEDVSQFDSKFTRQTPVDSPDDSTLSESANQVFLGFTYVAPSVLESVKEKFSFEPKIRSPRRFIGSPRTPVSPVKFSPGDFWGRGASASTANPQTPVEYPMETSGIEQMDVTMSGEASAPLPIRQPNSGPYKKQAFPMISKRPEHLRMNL

In assay [6] the target is T3, Tyrosine-protein kinase ITK/TSK (Homo sapiens) (UniProt Q08881).
T3 sequence (whole entry): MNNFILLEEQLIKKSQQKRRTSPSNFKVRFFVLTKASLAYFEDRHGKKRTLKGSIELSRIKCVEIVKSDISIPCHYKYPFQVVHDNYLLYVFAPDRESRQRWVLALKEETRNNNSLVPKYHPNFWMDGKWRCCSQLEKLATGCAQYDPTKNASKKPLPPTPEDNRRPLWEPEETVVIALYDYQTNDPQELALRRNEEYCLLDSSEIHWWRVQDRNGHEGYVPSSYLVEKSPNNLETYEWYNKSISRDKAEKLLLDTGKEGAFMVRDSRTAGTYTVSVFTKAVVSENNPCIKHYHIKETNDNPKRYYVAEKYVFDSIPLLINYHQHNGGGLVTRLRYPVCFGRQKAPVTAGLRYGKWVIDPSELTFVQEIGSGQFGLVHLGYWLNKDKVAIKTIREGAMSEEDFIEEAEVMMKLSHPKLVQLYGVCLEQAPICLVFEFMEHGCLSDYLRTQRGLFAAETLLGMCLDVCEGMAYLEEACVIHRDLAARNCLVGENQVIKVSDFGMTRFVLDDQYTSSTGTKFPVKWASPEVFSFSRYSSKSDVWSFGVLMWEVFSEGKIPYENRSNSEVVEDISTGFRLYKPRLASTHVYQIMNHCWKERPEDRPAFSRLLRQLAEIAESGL
As to the kind of experiment: Inhibition of full length human N-terminal GST-tagged ITK (2 to 620 residues) expressed in baculovirus expression system using fluorescence labelled srctide as substrate at 50 times IC50 by electrophoretic mobility shift assay relative to control.

SMILES strings stand for the structures.

Receptor-type tyrosine-protein kinase FLT3 (Homo sapiens), sequence (P36888 whole entry): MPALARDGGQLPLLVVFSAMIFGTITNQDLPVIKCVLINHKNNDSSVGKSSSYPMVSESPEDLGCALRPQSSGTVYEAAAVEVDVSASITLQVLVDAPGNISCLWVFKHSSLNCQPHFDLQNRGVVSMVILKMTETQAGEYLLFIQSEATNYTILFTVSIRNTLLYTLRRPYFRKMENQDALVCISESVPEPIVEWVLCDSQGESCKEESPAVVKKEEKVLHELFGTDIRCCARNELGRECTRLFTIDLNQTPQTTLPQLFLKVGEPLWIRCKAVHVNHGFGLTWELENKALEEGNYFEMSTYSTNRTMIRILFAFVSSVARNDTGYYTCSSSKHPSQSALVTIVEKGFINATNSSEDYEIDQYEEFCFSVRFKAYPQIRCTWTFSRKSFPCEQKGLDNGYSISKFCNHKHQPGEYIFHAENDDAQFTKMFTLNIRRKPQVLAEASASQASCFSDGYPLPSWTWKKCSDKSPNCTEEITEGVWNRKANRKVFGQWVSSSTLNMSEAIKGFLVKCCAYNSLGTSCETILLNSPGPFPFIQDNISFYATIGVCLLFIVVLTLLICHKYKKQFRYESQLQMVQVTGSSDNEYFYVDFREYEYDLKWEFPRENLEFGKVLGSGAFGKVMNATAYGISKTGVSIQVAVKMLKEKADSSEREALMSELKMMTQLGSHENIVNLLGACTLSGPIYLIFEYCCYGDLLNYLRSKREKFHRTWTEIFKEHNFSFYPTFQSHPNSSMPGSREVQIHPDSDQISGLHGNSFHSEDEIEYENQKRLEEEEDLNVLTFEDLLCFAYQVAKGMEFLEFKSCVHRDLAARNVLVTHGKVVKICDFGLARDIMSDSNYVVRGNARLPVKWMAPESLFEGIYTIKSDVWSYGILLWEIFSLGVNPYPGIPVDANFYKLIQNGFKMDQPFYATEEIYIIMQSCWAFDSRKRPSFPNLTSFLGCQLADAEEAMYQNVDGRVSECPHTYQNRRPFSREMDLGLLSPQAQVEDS

Consider `O=C(Nc1ccc(CN2CCN(c3ccccc3)CC2)cc1)c1n[nH]c2ccccc12`, for which the inhibition (as a rule, how much of the control response was suppressed) in assay [1] is “Dose-dependent effect”; in assay [3], 3.6%; in assay [4] it was 0.6%; in assay [5] it was 17.8%; in assay [6], 37.4%. In addition, the IC50 – broadly, the point on the concentration scale where inhibition reaches its midpoint – in assay [2] was more than 10 µM; with MV4-11, 0.164 µM. The Ratio IC50 in the assay listed under Homo sapiens came to 15.
As for `O=C(Nc1ccc(C(=O)N2CCN(c3ccccc3)CC2)cc1)c1n[nH]c2ccccc12`, the inhibition in assay [3] stood at 9.3%; in assay [4], 1.3%; in assay [5], 43%; in assay [6], 50.8%.
Turning to `O=C(Nc1ccccc1)c1n[nH]c2ccccc12`, the half-inhibitory concentration (IC50) in assay [2] is more than 10 µM; in the assay with MV4-11, 7.7 µM. Further, the inhibition in assay [3] amounted to 10.6%; in assay [4] it was 0.7%; in assay [5] it was 47.3%; in assay [6] it was 79.7%.
